From publication PMC11723358, “Nelumbo nucifera Petals Ameliorate Depressive-like Symptom and Cognitive Deficit in Unpredictable Chronic Mild Stress Mouse Model” (Nutrients, 2024)

Legend:
Assay in all cases: fluorescence, kynuramine to 4-hydroxyquinoline
Assay type in all cases: biochemical
MAO-A = target: T1, MAO-A (Homo sapiens, UniProt P21397)
T1 construct: gene MAOA; human recombinant enzyme
T1 sequence (P21397 1-527): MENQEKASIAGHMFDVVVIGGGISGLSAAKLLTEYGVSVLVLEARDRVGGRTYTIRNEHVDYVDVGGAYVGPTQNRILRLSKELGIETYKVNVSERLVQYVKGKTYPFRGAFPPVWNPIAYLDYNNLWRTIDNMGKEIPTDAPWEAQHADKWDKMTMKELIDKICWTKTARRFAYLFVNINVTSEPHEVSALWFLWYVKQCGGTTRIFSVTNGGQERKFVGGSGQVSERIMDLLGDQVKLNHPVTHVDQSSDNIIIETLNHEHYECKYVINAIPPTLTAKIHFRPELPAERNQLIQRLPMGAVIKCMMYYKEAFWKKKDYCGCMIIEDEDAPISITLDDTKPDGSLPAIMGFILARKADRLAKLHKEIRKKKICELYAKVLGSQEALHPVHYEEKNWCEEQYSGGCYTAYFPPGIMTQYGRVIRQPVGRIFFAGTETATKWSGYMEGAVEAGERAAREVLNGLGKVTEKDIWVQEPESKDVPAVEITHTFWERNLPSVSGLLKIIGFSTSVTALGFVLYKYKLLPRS

MAO-B [1] = target: T2, MAO-B (Homo sapiens, UniProt P27338)
T2 construct: gene MAOB; human recombinant enzyme
T2 sequence (P27338 2-520): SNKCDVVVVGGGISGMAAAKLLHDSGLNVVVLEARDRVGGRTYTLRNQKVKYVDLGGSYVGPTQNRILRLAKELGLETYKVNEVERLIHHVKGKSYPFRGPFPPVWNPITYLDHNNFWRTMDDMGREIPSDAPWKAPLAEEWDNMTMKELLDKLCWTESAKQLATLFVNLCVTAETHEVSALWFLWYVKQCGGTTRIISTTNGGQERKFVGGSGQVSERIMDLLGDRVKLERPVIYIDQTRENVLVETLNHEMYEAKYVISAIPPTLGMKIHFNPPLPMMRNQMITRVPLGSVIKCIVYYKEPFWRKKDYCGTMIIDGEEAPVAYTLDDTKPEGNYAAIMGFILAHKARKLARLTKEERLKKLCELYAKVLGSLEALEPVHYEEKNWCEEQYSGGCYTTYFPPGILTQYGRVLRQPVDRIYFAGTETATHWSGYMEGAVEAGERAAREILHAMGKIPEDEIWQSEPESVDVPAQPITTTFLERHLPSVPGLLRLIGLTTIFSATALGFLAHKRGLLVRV

MAO-B [2] = target: T2, MAO-B; details: read-out: % inhibition at 1000 μM
Source text: fluorescence, kynuramine to 4-hydroxyquinoline on MAO-B

IC50 (MAO-A) | IC50 (MAO-B [1]) | inhibition at 1000 µM (MAO-B [2]) | SMILES
578.4 ± 2.01 µM | 860.7 ± 3.7 µM | – | O=c1c(O[C@@H]2O[C@H](CO)[C@H](O)[C@H](O)[C@H]2O)c(-c2ccc(O)cc2)oc2cc(O)cc(O)c12 [compound 2, trifolin]
108.9 ± 0.21 µM | 242.2 ± 0.78 µM | – | C[C@@H]1O[C@@H](O[C@H]2[C@H](Oc3c(-c4ccc(O)cc4)oc4cc(O)cc(O)c4c3=O)O[C@H](CO)[C@@H](O)[C@@H]2O)[C@H](O)[C@H](O)[C@H]1O [compound 3, kaempferol-3-neohesperidoside]
584 ± 11.8 µM | – | 43.5 ± 5.2% | OCCc1ccc(O[C@@H]2O[C@H](CO)[C@@H](O)[C@H](O)[C@H]2O)cc1 [compound 4, icariside D2]
2.8 ± 0.13 µM | – | 20.7 ± 1.8% | CC[C@H](CC[C@@H](C)[C@H]1CC[C@H]2[C@@H]3CC=C4C[C@@H](O)CC[C@]4(C)[C@H]3CC[C@]12C)C(C)C [compound 5, β-sitosterol]
